Test results published in US12582670B2, “Lignin solvation using aqueous biologically compatible buffers” (priority 2019, dated 2026).
“Also recorded” adds a separate entry of the source.

Key:
[1] = system: S. uberis Diemhofer (NCTC 3858); experiment: β-lactam disk diffusion susceptibility test with and without lignin; type: cell-based, Streptococcus uberis; conditions: disks 10 μg penicillin, 10 μg ampicillin, 30 μg amoxicillin+clavulanic acid, 24 h
Procedure: (§1) Example 13. Sensitivity of S. agalactiae and S. uberis to β-lactams and lignin. Type strains of S. agalactiae and S. uberis Diemhofer (NCTC 8181 and NCTC 3858, respectively) were obtained from the American Type Culture Collection (ATCC) as lyophilized pellets. Cells were revived by resuspension in 5 mL Todd Hewitt broth (THB, 3% w/v) and static incubation for 24 h at 37° C. Culture OD600 was measured and the volume to achieve OD600=0.025 was added to 50 mL fresh THB in 250 mL Erlenmeyer flasks and grown for 2 hours; S. agalactiae cultures were supplemented with 1 μM hemin and 10 μM menaquinone and grown at 37° C. and 200 rpm, while S. uberis was grown statically at 37° C. Cultures were centrifuged at 4500 rpm for 10 minutes. Due to differences in pellet sizes, S. agalactiae pellets were resuspended in 1 mL Hank's Balanced Salt Solution (HBSS), and S. uberis pellets were resuspended in 400 μL HBSS in order to normalize the OD600 of the two cell suspensions. […] Paper disks containing 10 μg penicillin, 10 μg ampicillin, and 30 μg amoxicillin+clavulanic acid (Oxoid, Basingstoke, UK) were placed on the agar, then incubated for 24 h at 37° C. Plates were inspected for zones of clearance around the disks indicating susceptibility.

[2] = system: S. aureus UAMS-1 (methicillin-sensitive, MSSA); experiment: β-lactam disk diffusion susceptibility test; type: cell-based, Staphylococcus aureus; conditions: disks 0.2 μg oxacillin, 2 μg ampicillin, 2 μg penicillin, 24 h
Procedure: (§2) Example 9. β-lactam disk diffusion susceptibility test. […] Methicillin-susceptible and methicillin-resistant S. aureus, UAMS-1 and LAC-13C, respectively, were streaked for isolation on tryptic soy agar (TSA) plates and incubated for 24 hours at 37° C. Overnight cultures were prepared by picking a single colony of each strain from its plate and adding to separate 3 mL sterile tryptic soy broth (TSB) in a 5 mL culture tube and incubating 14-16 h at 37° C. and 250 rpm. Next, the optical density at 600 nm (OD600) was measured to prepare fresh 50 mL cultures with OD600=0.1 to be grown for 2-3 hours at 37° C. and 250 rpm. Cultures were pelleted by centrifugation at 4500 rpm, then resuspended and concentrated in 500 μL sterile 1× Hank's Balanced Salt Solution (HBSS). […] To achieve lawn-style growth, cells were spread across the plates with sterile glass beads.

[3] = system: S. aureus LAC-13C (methicillin-resistant, MRSA); experiment: β-lactam disk diffusion susceptibility test; type: cell-based, Staphylococcus aureus; conditions: disks 1 μg oxacillin, 10 μg ampicillin, 10 μg penicillin, 24 h
Procedure: as §2

[4] = system: S. agalactiae (NCTC 8181); experiment: β-lactam disk diffusion susceptibility test with and without lignin; type: cell-based, Streptococcus agalactiae; conditions: disks 10 μg penicillin, 10 μg ampicillin, 30 μg amoxicillin+clavulanic acid, 24 h
Procedure: as §1

[5] = system: S. aureus UAMS-1; experiment: Tunicamycin disk diffusion assay; type: cell-based, Staphylococcus aureus; conditions: 2 μg disk, 24 h
Procedure: Tunicamycin disk diffusion assay: S. aureus UAMS-1 cultures were prepared by inoculating separate 15-mL culture tubes containing 3 mL sterile 3% (w/v) TSB with a single colony and incubated 14-16 h at 37° C. while shaking at 250 rpm. Fresh 50-mL cultures with an initial OD600=0.025 were prepared and incubated for 2 h at 37° C. and 250 rpm. Cells were collected by centrifugation at 4,500 rpm and resuspended in 500 μL sterile Hank's Balanced Salt Solution (HBSS; Corning, Corning, NY). […] Cells were spread across the plates with sterile glass beads and the plates were left open to dry in a clean laminar-flow hood for 10-15 min. […] Three biological replicates were analyzed.

[6] = in the presence of 5 mg/mL lignin
[7] = TSA with 50 mM MOPS and 5 mg/mL lignin
[8] = TSA without lignin (50 mM MOPS)

Compound | sensitivity (zone of clearance around disk) [1, 6] | sensitivity (zone of clearance around disk) ([1]; without lignin (50 mM MOPS)) | susceptibility (zone of clearance around disk) [2, 7] | susceptibility (zone of clearance around disk) [2, 8] | susceptibility (zone of clearance around disk) [3, 7] | sensitivity (zone of clearance around disk) [4, 6] | sensitivity (zone of clearance around disk) ([4]; without lignin (50 mM MOPS)) | susceptibility (zone of clearance around disk) [3, 8] | zone of clearance around disk ([5]; TSA with 50 mM MOPS + 5 mg/mL lignin) | zone of clearance around disk ([5]; TSA with 50 mM MOPS + 5 mg/mL lignin, listed as Tunicamycin) | zone of clearance around disk ([5]; TSA with 50 mM MOPS, no lignin) | zone of clearance around disk ([5]; TSA with 50 mM MOPS, no lignin, listed as Tunicamycin)
CC1(C)S[C@@H]2[C@H](NC(=O)[C@H](N)c3ccccc3)C(=O)N2[C@H]1C(=O)O [ampicillin] | highly sensitive | some susceptibility; also recorded: moderately sensitive | at least partially sensitive/susceptible; also recorded: increased sensitivity/susceptibility | completely or nearly completely resistant; also recorded: moderately resistant | increased sensitivity/susceptibility | highly sensitive | some susceptibility; also recorded: moderately sensitive | – | – | – | – | –
Cc1onc(-c2ccccc2)c1C(=O)N[C@@H]1C(=O)N2[C@@H]1SC(C)(C)[C@@H]2C(=O)O [oxacillin] | – | – | increased sensitivity/susceptibility | sensitive/susceptible | sensitive; also recorded: increased sensitivity/susceptibility | – | – | completely resistant | – | – | – | –
amoxicillin+clavulanic acid | highly sensitive | some susceptibility; also recorded: moderately sensitive | – | – | – | highly sensitive | some susceptibility; also recorded: moderately sensitive | – | – | – | – | –
penicillin | highly sensitive | some susceptibility; also recorded: moderately sensitive | at least partially sensitive/susceptible; also recorded: increased sensitivity/susceptibility | completely or nearly completely resistant; also recorded: moderately resistant | increased sensitivity/susceptibility | highly sensitive | some susceptibility; also recorded: moderately sensitive | – | – | – | – | –
tunicamycin | – | – | – | – | – | – | – | – | susceptibility | a clearance zone was observed | tolerance of the antibiotic | No clearance zone was observed
